Measurements taken from patent publication US10087242B2 (INSTITUT PASTEUR, priority 2007, dated 2018).

What was measured:
Format in all cases: binding, mouse
mIgG C7-37 = experiment: inhibition ELISA: oligosaccharide inhibits fixation of mIgG C7-37 on LPS 3a; conditions: concentration of oligosaccharide giving 50% inhibition of fixation of the mAb on LPS 3a (S. flexneri 3a)
Description: (§1) The oligosaccharide determinants recognized by the four mAbs obtained were characterized by measuring, by inhibition ELISA, the interaction of the various oligosaccharides synthesized with these mAbs.
(§2) 1) First, a standard curve OD=f(concentration of the mAb) was established for each antibody.
(§3) For this, purified LPS from S. flexneri 3a was fixed in the wells of ELISA plates (96-well plate), at a concentration of 25 μg/ml in a carbonate buffer pH 9.6, at 4° C., overnight.
(§4) After washing the wells with a solution of PBS/ Tween 20 (0.05%) 1% and a stage of saturation with PBS/BSA 1% for 30 minutes at 4° C., various concentrations of each mAb were incubated for 30 minutes at 4° C. After a washing stage, a secondary antibody coupled to alkaline phosphatase and specific to the mouse IgGs or IgMs was added at a dilution of 1/5000 (Sigma-Aldrich) for 1 h at 37° C. After washing, the enzymatic reaction was carried out with the specific substrate of alkaline phosphatase (12 mg of p-nitrophenylphosphate in 1.2 ml of Tris-HCl buffer 1M (pH 8.8) and 10.8 ml of 5M NaCl). Once the color reaction had developed, the plates were read at 405 nm (Dynatech MR 4000 plate reader). The standard curve OD =f(Ab concentration) was refined with the equation Y=aX2+bX+c, where Y corresponds to the OD and X to the antibody concentration. A correlation factor (r2) of 0.99 was generally obtained.
(§5) 2) The concentration of oligosaccharide capable of inhibiting 50% of the fixation of the mAb on LPS 3a was then determined as follows.
(§6) Each mAb was used at a given concentration, defined as the first concentration tested giving a maximum OD on the standard curve (the first point at the start of the plateau of the curve). Various concentrations of each of the oligosaccharides to be tested were then incubated separately with the mAb at constant concentration, overnight at 4° C., in 1% PBS-BSA buffer. Measurement of the free antibody concentration was carried out as stated above, after incubation of the mAb/oligosaccharide mixtures at 4° C. for 30 minutes on plates covered with LPS 3a and using the standard curve obtained in parallel on the same plate. For each mAb and each oligosaccharide, a value called IC50 was then calculated, corresponding to the concentration of oligosaccharide permitting 50% inhibition of the fixation of the mAb on LPS 3a.

mIgG G7-12 = experiment: inhibition ELISA: oligosaccharide inhibits fixation of mIgG G7-12 on LPS 3a; conditions: concentration of oligosaccharide giving 50% inhibition of fixation of the mAb on LPS 3a (S. flexneri 3a)
Description: as §1, §2, §3, §4, §5, §6

IgM (G 19-2) = experiment: inhibition ELISA: oligosaccharide inhibits fixation of IgM G19-2 on LPS 3a; conditions: for IC50: concentration of oligosaccharide giving 50% inhibition of fixation of the mAb on LPS 3a (S. flexneri 3a), inhibition ELISA; for recognition by the mIgM antibody (and by the mIgGs): summary in words of tables 1 and 2, interaction weaker than with the mIgGs
Description: Protocol 2) Ten Balb/C mice and four BP2 mice were immunized by i.p. injection with virulent live bacteria of the strain S. flexneri 3a, every three weeks, using 2×10^6 bacteria for the first 2 immunizations and 5×10^6 for the next 4. As the anti-LPS 3a antibody response was too weak for performing cellular fusion, an additional series of 4 injections was carried out. Two mAbs of type IgM, G19-2 and L18-9, were obtained.
as §1, §2, §3, §4, §5, §6

| SMILES | IC50 (mIgG C7-37) | IC50 (mIgG G7-12) | IC50 (IgM (G 19-2)) | recognition by the mIgM antibody (and by the mIgGs) (IgM (G 19-2)) |
| --- | --- | --- | --- | --- |
| CCCO[C@@H]1OC(C)[C@H](O)[C@H](O[C@H]2O[C@@H](CO)[C@@H](O)C(O)C2O)C1O[C@@H]1OC(CO)[C@@H](O)C(O)[C@@H]1NC(C)=O (stereo partly drawn) | > 5000 µM | > 2500 µM | > 2500 µM |  |
| CCCO[C@@H]1OC(C)[C@H](O)C(O)C1O[C@@H]1OC(C)[C@H](O)C(O[C@H]2OC(CO)[C@@H](O)C(O)C2O)C1O[C@@H]1OC(CO)[C@@H](O)C(O[C@@H]2OC(C)[C@H](O)C(O[C@@H]3OC(C)[C@H](O)C(O)C3O)C2OC(C)=O)C1NC(C)=O (stereo partly drawn) [BC(2-OAc)D(E)AB-OPr, Propyl α-L-rhamnopyranosyl-(1→3)-(2-O-acetyl-α-L-rhamnopyranosyl)-(1→3)-(2-acetamido-2-deoxy-β-D-glucopyranosyl)-(1→2)-[α-D-glucopyranosyl-(1→3)]-α-L-rhamnopyranosyl-(1→2)-α-L-rhamnopyranoside] | 230 µM | 205 µM | 2200 µM | recognized |
| CCCO[C@@H]1OC(C)[C@H](O)C(O[C@H]2OC(CO)[C@@H](O)C(O)C2O)C1O[C@@H]1OC(CO)[C@@H](O)C(O[C@@H]2OC(C)[C@H](O)C(O[C@@H]3OC(C)[C@H](O)C(O)C3O)C2O)C1NC(C)=O (stereo partly drawn) [BCDEA-Opr, Propyl α-L-rhamnopyranosyl-(1→3)-α-L-rhamnopyranosyl-(1→3)-(2-acetamido-2-deoxy-β-D-glucopyranosyl)-(1→2)-[α-D-glucopyranosyl-(1→3)]-α-L-rhamnopyranoside] | > 1000 µM | > 2500 µM | > 2500 µM |  |
| CCCO[C@@H]1OC(C)[C@H](O)C(O[C@H]2OC(CO)[C@@H](O)C(O)C2O)C1O[C@@H]1OC(CO)[C@@H](O)C(O[C@@H]2OC(C)[C@H](O)C(O[C@@H]3OC(C)[C@H](O)C(O)C3O)C2OC(C)=O)C1NC(C)=O (stereo partly drawn) [BCDEA-Opr-Oac, Propyl α-L-rhamnopyranosyl-(1→3)-(2-O-acetyl-α-L-rhamnopyranosyl)-(1→3)-(2-acetamido-2-deoxy-β-D-glucopyranosyl)-(1→2)-[α-D-glucopyranosyl-(1→3)]-α-L-rhamnopyranoside] | 195 µM | 175 µM | 1980 µM | recognized |
| CCCO[C@@H]1OC(C)[C@H](O)C(O)C1O[C@@H]1OC(C)[C@H](O)C(O[C@H]2OC(CO)[C@@H](O)C(O)C2O)C1O[C@@H]1OC(CO)[C@@H](O)C(O[C@@H]2OC(C)[C@H](O)C(O[C@@H]3OC(C)[C@H](O)C(O)C3O)C2O)C1NC(C)=O (stereo partly drawn) [BCDEAB-Opr] | > 5000 µM | > 2500 µM | > 2500 µM |  |
| CCCO[C@@H]1OC(C)[C@H](O)C(O)C1O[C@@H]1OC(C)[C@H](O)C(O[C@H]2OC(CO)[C@@H](O)C(O)C2O)C1O[C@@H]1OC(CO)[C@@H](O)C(O[C@@H]2OC(C)[C@H](O)C(O)C2OC(C)=O)C1NC(C)=O (stereo partly drawn) [C(2,3-OAc)D(E)AB-OPr, Propyl (2-O-acetyl-α-L-rhamnopyranosyl)-(1→3)-(2-acetamido-2-deoxy-β-D-glucopyranosyl)-(1→2)-[α-D-glucopyranosyl-(1→3)]-α-L-rhamnopyranosyl-(1→2)-α-L-rhamnoyranoside] | > 5000 µM | > 2500 µM | > 2500 µM |  |
| CCCO[C@@H]1O[C@@H](C)[C@H](O)[C@@H](O)[C@H]1O[C@@H]1O[C@@H](C)[C@H](O)[C@@H](O[C@H]2O[C@H](CO)[C@@H](O)[C@H](O)[C@H]2O)[C@H]1O[C@@H]1O[C@H](CO)[C@@H](O)[C@H](O)[C@H]1NC(C)=O [DEAB-OPr, Propyl 2-acetamido-2-deoxy-β-D-glucopyranosyl-(1→2)-[α-D-glucopyranosyl-(1→3)]-α-L-rhamnopyranosyl-(1→2)-α-L-rhamnopyranoside] | > 5000 µM | > 2500 µM | > 2500 µM |  |
| CCCO[C@@H]1O[C@@H](C)[C@H](O)[C@@H](O[C@@H]2O[C@@H](C)[C@H](O)[C@@H](O)[C@H]2O[C@@H]2O[C@@H](C)[C@H](O)[C@@H](O[C@H]3O[C@H](CO)[C@@H](O)[C@H](O)[C@H]3O)[C@H]2O[C@@H]2O[C@H](CO)[C@@H](O)[C@H](O)[C@H]2NC(C)=O)[C@H]1OC(C)=O [DEABC(2-OAc)-OPr, Propyl (2-acetamido-2-deoxy-β-D-glucopyranosyl)-(1→2)-[α-D-glucopyranosyl-(1→3)]-α-L-rhamnopyranosyl-(1→2)-α-L-rhamnopyranosyl-(1→3)-2-O-acetyl-α-rhamnopyranoside] |  | > 2500 µM | > 2500 µM |  |
| CCCO[C@@H]1O[C@@H](C)[C@H](O)[C@@H](O[C@@H]2O[C@@H](C)[C@H](O)[C@@H](O)[C@H]2O[C@@H]2O[C@@H](C)[C@H](O)[C@@H](O[C@H]3O[C@H](CO)[C@@H](O)[C@H](O)[C@H]3O)[C@H]2O[C@@H]2O[C@H](CO)[C@@H](O)[C@H](O)[C@H]2NC(C)=O)[C@H]1O [DEABC)-OPr, Propyl (2-acetamido-2-deoxy-β-D-glucopyranosyl)-(1→2)-[α-D-glucopyranosyl-(1→3)]-α-L-rhamnopyranosyl-(1→2)-α-L-rhamnopyranosyl-(1→3)-α-L-rhamnopyranoside] | > 5000 µM | > 2500 µM | > 2500 µM |  |
| CCCO[C@@H]1O[C@@H](C)[C@H](O)[C@@H](O[C@H]2O[C@H](CO)[C@@H](O)[C@H](O)[C@H]2O)[C@H]1O [EA-OPr, Propyl α-D-glucopyranosyl- (1→3)-α-L-rhamnopyranoside] | > 5000 µM | > 2500 µM | > 2500 µM |  |
| CCCO[C@@H]1O[C@@H](C)[C@H](O)[C@@H](O)[C@H]1O[C@@H]1O[C@@H](C)[C@H](O)[C@@H](O[C@H]2O[C@H](CO)[C@@H](O)[C@H](O)[C@H]2O)[C@H]1O [EAB-OPr, Propyl α-D-glucopyranosyl-(1→3)-α-L-rhamnopyranosyl-(1→2)-α-L-rhamnopyranoside] | > 5000 µM | > 2500 µM | > 2500 µM |  |
| CCCO[C@@H]1O[C@@H](C)[C@H](O)[C@@H](O[C@@H]2O[C@@H](C)[C@H](O)[C@@H](O)[C@H]2O[C@@H]2O[C@@H](C)[C@H](O)[C@@H](O[C@H]3O[C@H](CO)[C@@H](O)[C@H](O)[C@H]3O)[C@H]2O)[C@H]1OC(C)=O [EABC(2-OAc)-OPr, Propyl α-D-glucopyranosyl-(1→3)-α-L-rhamnopyranosyl-(1→2)-α-L-rhamnopyranosyl-(1→3)-2-O-acetyl-α-L-rhamnopyranoside] | 410 µM | 450 µM | 1430 µM | recognized |
| CCCO[C@@H]1OC(CO)[C@@H](O)C(O[C@@H]2OC(C)[C@H](O)C(O[C@@H]3OC(C)[C@H](O)C(O)C3O[C@@H]3OC(C)[C@H](O)C(O[C@H]4OC(CO)[C@@H](O)C(O)C4O)C3O)C2OC(C)=O)C1NC(C)=O (stereo partly drawn) [EABC(2-OAc)D-OPr, Propyl α-D-glucopyranosyl-(1→3)-α-L-rhamnopyranosyl-(1→2)-α-L-rhamnopyranosyl-(1→3)-(2-O-acetyl-α-L-rhamnopyranosyl)-(1→3)-2-acetamido-2-deoxy-β-D-glucopyranoside] | 280 µM | 315 µM | 1280 µM | recognized |
| CCCO[C@@H]1O[C@@H](C)[C@H](O)[C@@H](O[C@@H]2O[C@@H](C)[C@H](O)[C@@H](O)[C@H]2O[C@@H]2O[C@@H](C)[C@H](O)[C@@H](O[C@H]3O[C@H](CO)[C@@H](O)[C@H](O)[C@H]3O)[C@H]2O)[C@H]1O [EABC-Opr, Propyl α-D-glucopyranosyl-(1→3)-α-L-rhamnopyranosyl-(1→2)-α-L-rhamnopyranosyl-(1→3)-α-L-rhamnopyranoside] | > 5000 µM | > 2500 µM | > 2500 µM |  |
